Assay results published in the supplement of paper PMC7108870.

Experiments:
HEK293sieSTAT3(Y640F) [1] = test: drug sensitivity score (DSS), viability CellTiter-Glo (DSS (dimensionless)); higher = more growth inhibition; extreme values may be limits of the assay; details: 72 h; STAT3 variant: Y640F (constitutively active)
Summary of the method: (§1)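 In 384-well plates with acoustically pre-plated compounds (5 concentrations, 10-fold dilutions), 20 μl of HEK293 cells at 100,000 cells/ml were added; the cells overexpressed wild-type or mutant STAT3 and carried a STAT3-dependent luciferase reporter. Incubation lasted 72 hours at 37°C and 5% CO2 before sequential CellTox Green (485/520 nm) and CellTiter-Glo reads on a PHERAstar FS. After normalisation to negative and positive control wells, Breeze was used to derive a drug sensitivity score from the dose-response curve area.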

HEK293sieSTAT3(wt) [2] = test: as above; details: 72 h; STAT3 variant: wild type
Summary of the method: as §1

HEK293sieSTAT3(Y640F) [3] = test: drug sensitivity score (DSS), cytotoxicity CellTox Green (DSS (dimensionless)); higher = more cytotoxic; extreme values may be limits of the assay; details: 72 h; STAT3 variant: Y640F (constitutively active)
Summary of the method: as §1

HEK293sieSTAT3(wt) [4] = test: as above; details: 72 h; STAT3 variant: wild type
Summary of the method: as §1

SMILES | drug sensitivity score (HEK293sieSTAT3(Y640F) [1]) | drug sensitivity score (HEK293sieSTAT3(wt) [2]) | drug sensitivity score (HEK293sieSTAT3(Y640F) [3]) | drug sensitivity score (HEK293sieSTAT3(wt) [4])
N#CC[C@H](C1CCCC1)n1cc(-c2ncnc3[nH]ccc23)cn1 [Ruxolitinib] (top concentration tested 10000 nM) | 2.89 | 3.2 | 0.39 | 0.1
CC(C)N(CCCNC(=O)Nc1ccc(C(C)(C)C)cc1)C[C@H]1O[C@@H](n2cc(Br)c3c(N)ncnc32)[C@H](O)[C@@H]1O [SGC0946] (top concentration tested 10000 nM) | 3.05 | 7.15 | 0.07 | 6.85
COc1ccc(CCc2nc3cc(-c4c(C)noc4C)ccc3n2C[C@H](C)N2CCOCC2)cc1Cl [SGC-CBP30] (top concentration tested 25000 nM) | 3.16 | 4.3 | 0.32 | 4.24
CN1CCC(CNc2ccc3ncc(-c4cccc(OC(F)(F)F)c4)n3n2)CC1 [SGI-1776] (top concentration tested 10000 nM) | 6.8 | 9.07 | 4.99 | 7.56
Cn1cc(-c2ccc3nnc(Sc4ccc5ncccc5c4)n3n2)cn1 [SGX-523] (top concentration tested 5000 nM) | 0 | 0.49 | 0.89 | 0
CN(CC(=O)N(Cc1ccc(C2CCCCC2)cc1)c1ccc(C(=O)O)cc1)S(=O)(=O)c1c(F)c(F)c(F)c(F)c1F [SH-4-54] (top concentration tested 25000 nM) | 10.1 | 10.8 | 5.59 | 9.04
CC(C)NC(=O)COc1cccc(-c2nc(Nc3ccc4[nH]ncc4c3)c3ccccc3n2)c1 [SLx-2119] (top concentration tested 5000 nM) | 10.7 | 5.8 | 0 | 0.57
CCc1c2c(nc3ccc(O)cc13)-c1cc3c(c(=O)n1C2)COC(=O)[C@]3(O)CC [SN-38] (top concentration tested 10000 nM) | 42 | 40.7 | 14.3 | 22.4
CC(C)(C)c1cnc(CSc2cnc(NC(=O)C3CCNCC3)s2)o1 [SNS-032] (top concentration tested 10000 nM) | 25.3 | 26.7 | 10.3 | 22.6
O=C(Nc1cccc(Cl)c1)Nc1ncc(CCNc2ncnc3ccsc23)s1 [SNS-314] (top concentration tested 1000 nM) | 5.69 | 5 | 0 | 2.17
Cc1cc2c(C(=O)NC[C@H](C)c3ccccc3)c(O)c(O)cc2c(O)c1-c1c(C)cc2c(C(=O)NC[C@H](C)c3ccccc3)c(O)c(O)cc2c1O [Sabutoclax] (top concentration tested 25000 nM) | 26.4 | 27.8 | 12.2 | 9.82
CNC(=O)CN1CCC(Oc2cc3c(Nc4cccc(Cl)c4F)ncnc3cc2OC)CC1 [Sapitinib] (top concentration tested 1000 nM) | 1.89 | 0 | 0 | 0
CN1CCN(CCOc2cc(OC3CCOCC3)c3c(Nc4c(Cl)ccc5c4OCO5)ncnc3c2)CC1 [Saracatinib] (top concentration tested 10000 nM) | 7.28 | 6.87 | 1.77 | 9.4
CC[C@H](CO)Nc1nc(NCc2ccccc2)c2ncn(C(C)C)c2n1 [Seliciclib] (top concentration tested 10000 nM) | 6.02 | 6.69 | 2.48 | 6.62
O=C(/C=C\n1cnc(-c2cc(C(F)(F)F)cc(C(F)(F)F)c2)n1)NNc1cnccn1 [Selinexor] (top concentration tested 10000 nM) | 26.9 | 30.8 | 14.5 | 26.4
Cn1cnc2c(F)c(Nc3ccc(Br)cc3Cl)c(C(=O)NOCCO)cc21 [Selumetinib] (top concentration tested 10000 nM) | 1.4 | 0.99 | 0.68 | 0
Cc1cc(C)c(/C=C2\C(=O)Nc3ccccc32)[nH]1 [Semaxanib] (top concentration tested 10000 nM) | 0 | 2.08 | 3.22 | 8.57
c1ccc2c(CCNc3ccc(Nc4ccncc4)cc3)c[nH]c2c1 [Serdemetan] (top concentration tested 10000 nM) | 5.06 | 7.89 | 0 | 1.74
O=C(O)c1ccc2c(c1)nc(Nc1cccc(Cl)c1)c1ccncc12 [Silmitasertib] (top concentration tested 10000 nM) | 6.52 | 7.79 | 0 | 1.84
CO[C@H]1C[C@@H]2CC[C@@H](C)[C@@](O)(O2)C(=O)C(=O)N2CCCC[C@H]2C(=O)O[C@H]([C@H](C)C[C@@H]2CC[C@@H](O)[C@H](OC)C2)CC(=O)[C@H](C)/C=C(\C)[C@@H](O)[C@@H](OC)C(=O)[C@H](C)C[C@H](C)/C=C/C=C/C=C/1C [Sirolimus] (top concentration tested 100 nM) | 7 | 9.09 | 0 | 0
Cc1c(C(=O)Nc2ccc(N3C[C@@H](C)O[C@@H](C)C3)nc2)cccc1-c1ccc(OC(F)(F)F)cc1 [Sonidegib] (top concentration tested 10000 nM) | 1.71 | 3.16 | 0 | 0
